The structures appear in SMILES notation. pEC50: −log10 of the molar value.

PB2, sequence (P03428 whole entry, looked up): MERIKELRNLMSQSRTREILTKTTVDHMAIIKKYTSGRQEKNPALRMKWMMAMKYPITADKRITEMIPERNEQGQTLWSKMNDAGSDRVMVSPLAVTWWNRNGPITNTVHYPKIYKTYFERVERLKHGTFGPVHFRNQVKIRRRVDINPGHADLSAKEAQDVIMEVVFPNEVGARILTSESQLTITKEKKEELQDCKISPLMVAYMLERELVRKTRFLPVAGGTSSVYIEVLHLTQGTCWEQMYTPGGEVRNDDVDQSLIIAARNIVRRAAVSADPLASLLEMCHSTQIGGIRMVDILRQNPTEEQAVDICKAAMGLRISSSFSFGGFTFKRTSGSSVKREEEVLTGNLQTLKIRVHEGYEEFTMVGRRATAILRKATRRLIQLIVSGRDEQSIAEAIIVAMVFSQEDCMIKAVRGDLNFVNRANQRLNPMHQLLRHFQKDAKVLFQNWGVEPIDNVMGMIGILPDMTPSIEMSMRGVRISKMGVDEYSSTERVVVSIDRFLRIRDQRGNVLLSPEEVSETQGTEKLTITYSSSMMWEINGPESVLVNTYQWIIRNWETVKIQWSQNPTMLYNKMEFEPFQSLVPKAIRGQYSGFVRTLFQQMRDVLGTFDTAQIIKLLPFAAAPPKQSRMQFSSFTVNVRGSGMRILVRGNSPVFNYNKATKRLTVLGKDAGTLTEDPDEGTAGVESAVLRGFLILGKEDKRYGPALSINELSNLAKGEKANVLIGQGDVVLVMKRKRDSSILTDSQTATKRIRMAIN

This assay has as its target PB2 (Influenza A virus, UniProt P03428). Kind of assay: biochemical. The assay is classed as binding.
Take `O=C(N[C@H]1CCC[C@@H](Nc2nc(-c3c[nH]c4ncc(F)cc34)ncc2F)C1)N1Cc2ccccc2C1` [Compound A3]: the pEC50 – broadly, −log10 of the EC50, conventionally taken in molar units – is 4.60 to 5.30.
Regarding `CCOCCOCCCCCN1CC(=O)N([C@@H]2CCC[C@H](Nc3nc(-c4c[nH]c5ncc(F)cc45)ncc3F)C2)C1=O` [Compound A5], the pEC50 was < 4.00.
Regarding `Cc1cncc(C(=O)N[C@@H]2CCC[C@H](Nc3nc(-c4c[nH]c5ncc(F)cc45)ncc3F)C2)c1` [Compound A64], the pEC50 was > 5.30.
In the case of `CCOCCOCCCCCN(CC)C(=O)N[C@H]1CCC[C@@H](Nc2nc(-c3c[nH]c4ncc(F)cc34)ncc2F)C1` [Compound A228], the pEC50 is 4.00 to 4.30.
For the compound `CN(CCCCCOCCOCc1ccccc1)C(=O)N[C@H]1CCC[C@@H](Nc2nc(-c3c[nH]c4ncc(F)cc34)ncc2F)C1` [Compound A221], the pEC50 is < 4.00.
Regarding `CCCCCCCCCCCN(Cc1ccccc1)C(=O)N[C@@H]1CCC[C@H](Nc2nc(-c3c[nH]c4ncc(F)cc34)ncc2F)C1` [Compound A185], the pEC50 is < 4.00.
In turn, `O=C(N[C@@H]1CCC[C@H](Nc2nc(-c3c[nH]c4ncc(F)cc34)ncc2F)C1)c1ccc(-c2ccccc2)nc1` [Compound A63] gave a negative logarithm of the EC50 (pEC50) of 4.60 to 5.30.
For the compound `O=C(NCC(O)CO)OCc1ccnc(C(=O)N[C@H]2CCC[C@@H](Nc3nc(-c4c[nH]c5ncc(F)cc45)ncc3F)C2)c1` (some centres unmarked) [Compound A99], the pEC50 is > 5.30.
The same measure for `CCCCc1ccnc(C(=O)N[C@H]2CCC[C@@H](Nc3nc(-c4c[nH]c5ncc(F)cc45)ncc3F)C2)c1` [Compound A42]: < 4.00.
In the case of `CN1CCC(CNC(=O)OCc2ccnc(C(=O)N[C@H]3CCC[C@@H](Nc4nc(-c5c[nH]c6ncc(F)cc56)ncc4F)C3)c2)CC1` [Compound A117], the pEC50 was 4.60 to 5.30.
As for `O=C(N[C@H]1CCC[C@@H](Nc2nc(-c3c[nH]c4ncc(F)cc34)ncc2F)C1)c1cnc2ccccc2c1` [Compound A55], the pEC50 was 4.60 to 5.30.
With `CCOc1ccccc1OCCCCCN(C)C(=O)N[C@@H]1CCC[C@H](Nc2nc(-c3c[nH]c4ncc(F)cc34)ncc2F)C1` [Compound A216], the pEC50 was < 4.00.
For `CCOCCOCCOCCNC(=O)N(CCOCCOCC)[C@@H]1CCC[C@H](Nc2nc(-c3c[nH]c4ncc(F)cc34)ncc2F)C1` [Compound B4], the pEC50 is < 4.00.
`CCOc1ccccc1OCCCC1CCCN(C(=O)N[C@H]2CCC[C@@H](Nc3nc(-c4c[nH]c5ncc(F)cc45)ncc3F)C2)C1` (some centres unmarked) [Compound A8]: the pEC50 is < 4.00.
On to `O=C(O)CC(=O)N1CCC[C@H](Nc2nc(-c3c[nH]c4ncc(F)cc34)ncc2F)C1` [Compound C10], for which the pEC50 was > 5.30.
For `CCOCCOCCCCCN(C(=O)N[C@H]1CCC[C@@H](Nc2nc(-c3c[nH]c4ncc(F)cc34)ncc2F)C1)C(C)C` [Compound A214], the pEC50 was < 4.00.
For the compound `CCCOCCOCCCCN(C)C(=O)N[C@H]1CCC[C@@H](Nc2nc(-c3c[nH]c4ncc(F)cc34)ncc2F)C1` [Compound A243], the pEC50 was < 4.00.
On to `CCNC(=O)C(NC(=O)OCc1ccnc(C(=O)N[C@H]2CCC[C@@H](Nc3nc(-c4c[nH]c5ncc(F)cc45)ncc3F)C2)c1)C(C)(C)C` (some centres unmarked) [Compound A149], for which the pEC50 was < 4.00.
In turn, `O=C(O)CN1CCC[C@H](Nc2nc(-c3c[nH]c4ncc(F)cc34)ncc2F)C1` [Compound C12] gave a pEC50 of 4.60 to 5.30.
For `Cc1ccc(CNC(=O)OCc2ccnc(C(=O)N[C@H]3CCC[C@@H](Nc4nc(-c5c[nH]c6ncc(F)cc56)ncc4F)C3)c2)cc1` [Compound A138], the pEC50 was < 4.00.
For `O=C(NCCc1ccccc1)OCc1ccnc(C(=O)N[C@@H]2CCC[C@H](Nc3nc(-c4c[nH]c5ncc(F)cc45)ncc3F)C2)c1` [Compound A94], the pEC50 is < 4.00.
For the compound `CCCCOCCCCCCN(C)C(=O)N[C@@H]1CCC[C@H](Nc2nc(-c3c[nH]c4ncc(F)cc34)ncc2F)C1` [Compound A200], the pEC50 was < 4.00.
With `CCNC(=O)CNC(=O)OCc1ccnc(C(=O)N[C@H]2CCC[C@@H](Nc3nc(-c4c[nH]c5ncc(F)cc45)ncc3F)C2)c1` [Compound A111], the pEC50 is 4.60 to 5.30.
In turn, `O=C(N[C@H]1CCC[C@@H](Nc2nc(-c3c[nH]c4ncc(F)cc34)ncc2F)C1)c1cncc(F)c1` [Compound A57] gave a negative-log EC50 (pEC50) of 4.60 to 5.30.
Take `O=C(COCCOCCOCCO)N[C@@H]1CCC[C@H](Nc2nc(-c3c[nH]c4ncc(F)cc34)ncc2F)C1` [Compound A265]: the pEC50 is 4.60 to 5.30.
Regarding `CCOCCOCCCCCN(CC(=O)O)C(=O)N[C@@H]1CCC[C@H](Nc2nc(-c3c[nH]c4ncc(F)cc34)ncc2F)C1` [Compound A202], the pEC50 is 4.60 to 5.30.
The compound `CCCCCOCCOCC(=O)N[C@@H]1CCC[C@H](Nc2nc(-c3c[nH]c4ncc(F)cc34)ncc2F)C1` [Compound A272] showed a pEC50 of 4.00 to 4.30.
Consider `CN(CCCCCOCCOCc1ccccn1)C(=O)N[C@@H]1CCC[C@H](Nc2nc(-c3c[nH]c4ncc(F)cc34)ncc2F)C1` [Compound A222], for which the pEC50 was 4.00 to 4.30.
The result for `CCOCc1ccc(C(=O)N[C@@H]2CCC[C@H](Nc3nc(-c4c[nH]c5ncc(F)cc45)ncc3F)C2)nc1` [Compound A41] reads 4.00 to 4.30.
As for `CCOCCOCCCCCN(CC)C(=O)N[C@H]1CCC[C@@H](Nc2nc(-c3c[nH]c4ncc(F)cc34)ncc2F)C1` [Compound A227], the pEC50 was < 4.00.
`O=C(O)CNC(=O)OCc1ccnc(C(=O)N[C@@H]2CCC[C@H](Nc3nc(-c4c[nH]c5ncc(F)cc45)ncc3F)C2)c1` [Compound A107]: the pEC50 is > 5.30.
For the compound `O=C(O)CCCN1CCC[C@H](Nc2nc(-c3c[nH]c4ncc(F)cc34)ncc2F)C1` [Compound C7], the pEC50 is 4.60 to 5.30.
Take `CCC(CC)OCCNC(=O)OCc1ccnc(C(=O)N[C@H]2CCC[C@@H](Nc3nc(-c4c[nH]c5ncc(F)cc45)ncc3F)C2)c1` [Compound A128]: the pEC50 is < 4.00.
For the compound `CCOCc1cccc(COCCNC(=O)N[C@@H]2CCC[C@H](Nc3nc(-c4c[nH]c5ncc(F)cc45)ncc3F)C2)c1` [Compound A187], the pEC50 is 4.00 to 4.30.
The same measure for `CCCOCCCCCCCN(C)C(=O)N[C@@H]1CCC[C@H](Nc2nc(-c3c[nH]c4ncc(F)cc34)ncc2F)C1` [Compound A235]: 4.00 to 4.30.
The same measure for `Cc1ccnc(C(=O)N[C@H]2CCC[C@@H](Nc3nc(-c4c[nH]c5ncc(F)cc45)ncc3F)C2)c1` [Compound A53]: 4.60 to 5.30.
The result for `CCOC(=O)CCN1CCC[C@@H](Nc2nc(-c3c[nH]c4ncc(F)cc34)ncc2F)C1` [Compound C14] reads 4.60 to 5.30; that for `O=C(O)CCN1CCC[C@H](Nc2nc(-c3c[nH]c4ncc(F)cc34)ncc2F)C1` [Compound C13], 4.60 to 5.30; that for `O=C(O)CCc1ccnc(C(=O)N[C@H]2CCC[C@@H](Nc3nc(-c4c[nH]c5ncc(F)cc45)ncc3F)C2)c1` [Compound A49], > 5.30.
Compound `O=C(NCC1COCCN1)OCc1ccnc(C(=O)N[C@H]2CCC[C@@H](Nc3nc(-c4c[nH]c5ncc(F)cc45)ncc3F)C2)c1` (some centres unmarked) [Compound A120] had a pEC50 of 4.60 to 5.30.
`CN(CCOCCOCCOCCN)C(=O)N[C@@H]1CCC[C@H](Nc2nc(-c3c[nH]c4ncc(F)cc34)ncc2F)C1` [Compound A173]: the pEC50 was 4.00 to 4.30.
Turning to `Cc1cc(C(=O)N[C@H]2CCC[C@@H](Nc3nc(-c4c[nH]c5ncc(F)cc45)ncc3F)C2)ccn1` [Compound A51], the pEC50 is 4.60 to 5.30.
Regarding `O=C(NCCc1cccc(Oc2ccccc2)c1)OCc1ccnc(C(=O)N[C@H]2CCC[C@@H](Nc3nc(-c4c[nH]c5ncc(F)cc45)ncc3F)C2)c1` [Compound A109], the pEC50 is < 4.00.
Take `O=C(N[C@@H]1CCC[C@H](Nc2nc(-c3c[nH]c4ncc(F)cc34)ncc2F)C1)c1cc(Oc2ccccc2)ccn1` [Compound A66]: the negative-log EC50 (pEC50) is < 4.00.
Compound `O=C(O)CCOCCOCCOCCNC(=O)N[C@H]1CCC[C@@H](Nc2nc(-c3c[nH]c4ncc(F)cc34)ncc2F)C1` [Compound A172] gave a pEC50 of 4.60 to 5.30.
The same measure for `CCOCCOCc1cc(-c2ccnc(C(=O)N[C@H]3CCC[C@@H](Nc4nc(-c5c[nH]c6ncc(F)cc56)ncc4F)C3)c2)ccc1F` [Compound A113]: < 4.00; for `O=C(N[C@H]1CCC[C@@H](Nc2nc(-c3c[nH]c4ncc(F)cc34)ncc2F)C1)c1cc(-c2ccccc2)ccn1` [Compound A54]: 4.60 to 5.30.
In turn, `COC(=O)N[C@H]1CCC[C@@H](Nc2nc(-c3c[nH]c4ncc(F)cc34)ncc2F)C1` [Compound A286] had a pEC50 of 4.30 to 4.60.
On to `O=C(NCc1cccc(F)c1)OCc1ccnc(C(=O)N[C@H]2CCC[C@@H](Nc3nc(-c4c[nH]c5ncc(F)cc45)ncc3F)C2)c1` [Compound A125], for which the pEC50 is < 4.00.
As for `CCOCCCCCOCCN(Cc1ccccc1)C(=O)N[C@H]1CCC[C@@H](Nc2nc(-c3c[nH]c4ncc(F)cc34)ncc2F)C1` [Compound A196], the pEC50 is < 4.00.
The same measure for `CCOCCOCCCc1ccnc(C(=O)N[C@H]2CCC[C@@H](Nc3nc(-c4c[nH]c5ncc(F)cc45)ncc3F)C2)c1` [Compound A288]: 4.60 to 5.30.
For the compound `O=C(NCc1ccccc1)OCc1ccnc(C(=O)N[C@@H]2CCC[C@H](Nc3nc(-c4c[nH]c5ncc(F)cc45)ncc3F)C2)c1` [Compound A91], the pEC50 was < 4.00.
As to `O=C(N[C@H]1CCC[C@@H](Nc2nc(-c3c[nH]c4ncc(F)cc34)ncc2F)C1)c1ccccn1` [Compound A35], the pEC50 was 4.00 to 4.30.
`NCCOCCOCCOCC(=O)N1CCC[C@H](Nc2nc(-c3c[nH]c4ncc(F)cc34)ncc2F)C1` [Compound C4] gave a pEC50 of 4.60 to 5.30.
The result for `O=C(N[C@H]1CCC[C@@H](Nc2nc(-c3c[nH]c4ncc(F)cc34)ncc2F)C1)N1CCc2ccccc2C1` [Compound A2] reads < 4.00; that for `CCC(CC)OCCOCCCc1ccnc(C(=O)N[C@@H]2CCC[C@H](Nc3nc(-c4c[nH]c5ncc(F)cc45)ncc3F)C2)c1` [Compound A40], < 4.00; that for `CCOCCOCCOCCN(C(=O)N(C)C)[C@@H]1CCC[C@H](Nc2nc(-c3c[nH]c4ncc(F)cc34)ncc2F)C1` [Compound B6], < 4.00.
`CCCCOCCCCc1ccnc(C(=O)N[C@H]2CCC[C@@H](Nc3nc(-c4c[nH]c5ncc(F)cc45)ncc3F)C2)c1` [Compound A31]: the pEC50 was < 4.00.
For the compound `COc1ccccc1CNC(=O)OCc1ccnc(C(=O)N[C@H]2CCC[C@@H](Nc3nc(-c4c[nH]c5ncc(F)cc45)ncc3F)C2)c1` [Compound A122], the pEC50 was < 4.00.

Source of the values: patent US12357631B2 (priority 2018, dated 2025).
